Settings: 101.33 kPa, Liquid

CCOC(=O)CC(=O)OCC [diethyl 1,3-propanedioate]
Settings	mass density [kg/m3]
278.15 K	1071.04
288.14 K	1060.33
298.15 K	1049.6
313.15 K	1033.5
328.15 K	1017.34
338.15 K	1006.5
348.15 K	995.631
358.15 K	984.697
